{"source": "patent US20160176867A1", "about": "“MODIFIED BET-PROTEIN-INHIBITING DIHYDROQUINOXALINONES AND DIHYDROPYRIDOPYRAZINONES” (BAYER PHARMA AKTIENGESELLSCHAFT, priority 2013, published 2016)", "key": {"[1]": {"biological_target": "T1, BRD4 bromo domain 1 [BRD4(1)] (Homo sapiens, UniProt O60885)", "T1 construct": "N-terminally His6-tagged BRD4(1) (amino acids 67-152); made in house; host or cells: E. coli", "experiment": "BRD4/acetylated peptide H4 binding assay (TR-FRET), BRD4 bromo domain 1", "conditions": "inhibition of BRD4(1)/Ac-H4 peptide interaction", "in_short": "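TR-FRET (665/620 nm ratio) measuring displacement of biotinylated tetra-acetylated H4 peptide from His6-BRD4(1) (aa 67-152, E. coli; typically 10 nM) at pH 7.5. Compound (11 concentrations, 0.1 nM–20 μM, duplicates) was preincubated 10 min at 22°C, then 1 h at 22°C and ≥3 h at 4°C; IC50 from 4-parameter fit normalized to DMSO and no-BRD4 controls.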"}, "MOLM-13 cells": {"system": "MOLM-13 cells", "experiment": "Cell proliferation assay (alamarBlue), MOLM-13", "type": "cell-based", "conditions": "Homo sapiens; MOLM-13 (acute myeloid leukaemia), 96 hours", "protocol": "In accordance with the invention, the ability of the substances to inhibit cell proliferation was determined. Cell viability was determined by means of the alamarBlue® reagent (Invitrogen) in a Victor X3 Multilabel Reader (Perkin Elmer). The excitation wavelength was 530 nm and the emission wavelength […].\nThe MOLM-13 cells (DSMZ, ACC 554) were sown at a concentration of 4000 cells/well in 100 μl of growth medium (RPMI1640, 10% FCS) on 96-well microtitre plates.\nAfter overnight incubation at 37° C., the fluorescence values were determined (CI values). Then the plates were treated with various substance dilutions (1E-5 M, 3E-6 M, 1E-6 M, 3E-7 M, 1E-7 M, 3E-8 M, 1E-8 M) and incubated at 37° C. over 96 hours (MOLM-13, B16F10, CHL-1 cells) or 120 hours (MOLP-8 cells). Subsequently, the fluorescence values were determined (CO values). For the data analysis, the CI values were subtracted from the CO values and the results were compared between cells which had been treated with various dilutions of the substance or only with buffer solution. The IC50 values (substance concentration needed for 50% inhibition of cell proliferation) were calculated therefrom."}}, "data": [{"smiles": "C[C@@H]1C(=O)N(C)c2ccc(Nc3cccc(S(=O)(=O)NC4CCN(C)CC4)c3)nc2N1C1CCN(C(=O)OC(C)(C)C)CC1", "note": "[Example 57, tert-butyl 4-[(3R)-1,3-dimethyl-6-({3-[(1-methylpiperidin-4-yl)sulphamoyl]phenyl}-amino)-2-oxo-2,3-dihydro-pyrido[2,3-b]pyrazin-4(1H)-yl]piperidine-1-carboxylate]", "values": [{"measurement": "IC50", "setting": "[1]", "value": 114, "unit": "nM"}, {"measurement": "IC50", "setting": "MOLM-13 cells", "value": 193, "unit": "nM"}]}, {"smiles": "C[C@@H]1C(=O)N(C)c2ccc(Nc3cccc(C(=O)N[C@H]4CC[C@H](N5CCN(CC6CC6)CC5)CC4)c3)nc2N1Cc1ccccc1", "note": "[Example 72, 3-{[(3R)-4-benzyl-1,3-dimethyl-2-oxo-1,2,3,4-tetrahydropyrido[2,3-b]pyrazin-6-yl]amino}-N-{trans-4-[4-(cyclo-propylmethyl)piperazin-1-yl]cyclohexyl}benzamide]", "values": [{"measurement": "IC50", "setting": "[1]", "value": 62, "unit": "nM"}, {"measurement": "IC50", "setting": "MOLM-13 cells", "value": 250, "unit": "nM"}]}, {"smiles": "C[C@@H]1C(=O)N(C)c2ccc(Nc3cccc(C(=O)N4CCN(C)CC4)c3)nc2N1Cc1ccccc1", "note": "[Example 75]", "values": [{"measurement": "IC50", "setting": "[1]", "value": 118, "unit": "nM"}, {"measurement": "IC50", "setting": "MOLM-13 cells", "value": 197, "unit": "nM"}]}, {"smiles": "C[C@@H]1C(=O)N(C)c2ccc(Nc3cccc(C(=O)N(C)C)c3)cc2N1C1CCNCC1", "note": "[Example 133, 3-{[(3R)-1,3-dimethyl-2-oxo-4-(piperidin-4-yl)-1,2,3,4-tetrahydroquinoxalin-6-yl]amino}-N,N-dimethylbenzamide]", "values": [{"measurement": "IC50", "setting": "[1]", "value": 124, "unit": "nM"}, {"measurement": "IC50", "setting": "MOLM-13 cells", "value": "> 10000", "unit": "nM"}]}, {"smiles": "C[C@@H]1C(=O)N(C)c2ccc(Nc3cccc(S(=O)(=O)N4CCCC4)c3)nc2N1C1CCN(C)CC1", "note": "[Example 24, (3R)-1,3-Dimethyl-4-(1-methylpiperidin-4-yl)-6-{[3-(pyrrolidin-1-ylsulphonyl)phenyl]amino}-3,4-dihydropyrido[2,3-b]pyrazin-2(1H)-one]", "values": [{"measurement": "IC50", "setting": "[1]", "value": 16, "unit": "nM"}, {"measurement": "IC50", "setting": "MOLM-13 cells", "value": 20, "unit": "nM"}]}, {"smiles": "C[C@@H]1C(=O)N(C)c2ccc(Nc3cccc(S(=O)(=O)NC4CCN(C)CC4)c3)nc2N1Cc1ccccc1", "note": "[Example 33, 3-{[(3R)-4-benzyl-1,3-dimethyl-2-oxo-1,2,3,4-tetrahydropyrido[2,3-b]pyrazin-6-yl]amino}-N-(1-methylpiperidin-4-yl)benzenesulphonamide]", "values": [{"measurement": "IC50", "setting": "[1]", "value": 22, "unit": "nM"}, {"measurement": "IC50", "setting": "MOLM-13 cells", "value": 16, "unit": "nM"}]}, {"smiles": "C[C@@H]1C(=O)N(C)c2ccc(Nc3cccc(S(=O)(=O)N(C)C)c3)cc2N1C1CCNCC1", "note": "[Example 129, 3-{[(3R)-1,3-dimethyl-2-oxo-4-(piperidin-4-yl)-1,2,3,4-tetrahydroquinoxalin-6-yl]amino}-N,N-dimethylbenzenesulphon-amide]", "values": [{"measurement": "IC50", "setting": "[1]", "value": 45, "unit": "nM"}, {"measurement": "IC50", "setting": "MOLM-13 cells", "value": 536, "unit": "nM"}]}, {"smiles": "CCNS(=O)(=O)c1cccc(Nc2ccc3c(n2)N(C2CCOCC2)[C@H](C)C(=O)N3C)c1", "note": "[Example 23, 3-{[(3R)-1,3-dimethyl-2-oxo-4-(tetrahydro-2H-pyran-4-yl)-1,2,3,4-tetrahydropyrido[2,3-b]pyrazin-6-yl]amino}-N-ethylbenzenesulphonamide]", "values": [{"measurement": "IC50", "setting": "[1]", "value": 15, "unit": "nM"}, {"measurement": "IC50", "setting": "MOLM-13 cells", "value": 47, "unit": "nM"}]}, {"smiles": "C[C@@H]1C(=O)N(C)c2ccc(Nc3cccc(S(=O)(=O)N4CC(F)(F)C4)c3)nc2N1C1CCN(C)CC1", "note": "[Example 29, (3R)-6-({3-[(3,3-Difluoroazetidin-1-yl)sulphonyl]phenyl}amino)-1,3-dimethyl-4-(1-methylpiperidin-4-yl)-3,4-dihydropyrido[2,3-b]pyrazin-2(1H)-one]", "values": [{"measurement": "IC50", "setting": "[1]", "value": 29, "unit": "nM"}, {"measurement": "IC50", "setting": "MOLM-13 cells", "value": 64, "unit": "nM"}]}, {"smiles": "CC(C)N1c2nc(Nc3cccc(C(=O)N4CCN(CC5CC5)CC4)c3)ccc2N(C)C(=O)[C@H]1C", "note": "[Example 88, (3R)-6-[(3-{[4-(cyclo-propylmethyl)piperazin-1-yl]carbonyl}phenyl)amino]-4-isopropyl-1,3-dimethyl-3,4-dihydropyrido[2,3-b]pyrazin-2(1H)-one]", "values": [{"measurement": "IC50", "setting": "[1]", "value": 382, "unit": "nM"}, {"measurement": "IC50", "setting": "MOLM-13 cells", "value": 2080, "unit": "nM"}]}, {"smiles": "CC(C)N1c2nc(Nc3cccc(S(=O)(=O)N4CCN(C)CC4)c3)ccc2N(C)C(=O)[C@H]1C", "note": "[Example 43, (3R)-4-isopropyl-1,3-dimethyl-6-({3-[(4-methylpiperazin-1-yl)sulphonyl]phenyl}-amino)-3,4-dihydropyrido-[2,3-b]pyrazin-2(1H)-one]", "values": [{"measurement": "IC50", "setting": "[1]", "value": 49, "unit": "nM"}, {"measurement": "IC50", "setting": "MOLM-13 cells", "value": 196, "unit": "nM"}]}, {"smiles": "C[C@@H]1C(=O)N(C)c2ccc(Nc3cccc(S(=O)(=O)N4CCN(C)CC4)c3)nc2N1C1CCOCC1", "note": "[Example 12, (3R)-1,3-Dimethyl-6-({3-[(4-methylpiperazin-1-yl)sulphonyl]phenyl}amino)-4-(tetrahydro-2H-pyran-4-yl)-3,4-dihydropyrido[2,3-b]pyrazin-2(1H)-one]", "values": [{"measurement": "IC50", "setting": "[1]", "value": 56, "unit": "nM"}, {"measurement": "IC50", "setting": "MOLM-13 cells", "value": 195, "unit": "nM"}]}, {"smiles": "C[C@@H]1C(=O)N(C)c2ccc(Nc3cccc(C(=O)N[C@H]4CC[C@H](N5CCN(CC6CC6)CC5)CC4)c3)nc2N1c1ccc(F)cc1", "note": "[Example 93]", "values": [{"measurement": "IC50", "setting": "[1]", "value": 466, "unit": "nM"}, {"measurement": "IC50", "setting": "MOLM-13 cells", "value": 410, "unit": "nM"}]}, {"smiles": "C[C@@H]1C(=O)N(C)c2ccc(Nc3cccc(S(=O)(=O)NCCN(C)C)c3)nc2N1C1CCOCC1", "note": "[Example 21]", "values": [{"measurement": "IC50", "setting": "[1]", "value": 48, "unit": "nM"}, {"measurement": "IC50", "setting": "MOLM-13 cells", "value": 237, "unit": "nM"}]}, {"smiles": "C[C@@H]1C(=O)N(C)c2ccc(Nc3cccc(C(=O)N4CCN(C)CC4)c3)nc2N1C1CCOCC1", "note": "[Example 15, (3R)-1,3-Dimethyl-6-({3-[(4-methylpiperazin-1-yl)carbonyl]phenyl}amino)-4-(tetrahydro-2H-pyran-4-yl)-3,4-dihydropyrido[2,3-b]pyrazin-2(1H)-one]", "values": [{"measurement": "IC50", "setting": "[1]", "value": 108, "unit": "nM"}, {"measurement": "IC50", "setting": "MOLM-13 cells", "value": 511, "unit": "nM"}]}, {"smiles": "C[C@@H]1C(=O)N(C)c2ccc(Nc3cccc(S(=O)(=O)NCCN(C)C)c3)nc2N1C1CCN(C(=O)OC(C)(C)C)CC1", "note": "[Example 59, tert-butyl 4-[(3R)-6-[(3-{[2-(dimethylamino)ethyl]-sulphamoyl}phenyl)amino]-1,3-dimethyl-2-oxo-2,3-dihydropyrido[2,3-b]pyrazin-4(1H)-yl]piperidine-1-carboxylate]", "values": [{"measurement": "IC50", "setting": "[1]", "value": 156, "unit": "nM"}, {"measurement": "IC50", "setting": "MOLM-13 cells", "value": 516, "unit": "nM"}]}, {"smiles": "COCCN1c2nc(Nc3cccc(S(=O)(=O)N4CCOCC4)c3)ccc2N(C)C(=O)[C@H]1C", "note": "(stereo in doubt) [Example 111, (3R)-4-(2-methoxyethyl)-1,3-dimethyl-6-{[3-(morpholin-4-ylsulphonyl)phenyl]amino}-3,4-dihydropyrido[2,3-b]pyrazin-2(1H)-one]", "values": [{"measurement": "IC50", "setting": "[1]", "value": 75, "unit": "nM"}, {"measurement": "IC50", "setting": "MOLM-13 cells", "value": 223, "unit": "nM"}]}, {"smiles": "C[C@@H]1C(=O)N(C)c2ccc(Nc3cccc(S(=O)(=O)N4CCOCC4)c3)nc2N1C1CCN(C)CC1", "note": "[Example 47, (3R)-1,3-dimethyl-4-(1-methylpiperidin-4-yl)-6-{[3-(morpholin-4-ylsulphonyl)phenyl]-amino}-3-4-dihydropyrido-[2,3-b]pyrazin-2(1H)-one]", "values": [{"measurement": "IC50", "setting": "[1]", "value": 21, "unit": "nM"}, {"measurement": "IC50", "setting": "MOLM-13 cells", "value": 51, "unit": "nM"}]}, {"smiles": "C[C@@H]1C(=O)N(C)c2ccc(Nc3cccc(C(=O)N[C@H]4CC[C@H](N5CCN(CC6CC6)CC5)CC4)c3)nc2N1C1CCNCC1", "note": "[Example 131, N-{trans-4-[4-(cyclo-propylmethyl)piperazin-1-yl]cyclohexyl}-3-{[(3R)-1,3-dimethyl-2-oxo-4-(piperidin-4-yl)-1,2,3,4-tetrahydropyrido[2,3-b]pyrazin-6-yl]amino}benzamide]", "values": [{"measurement": "IC50", "setting": "[1]", "value": 251, "unit": "nM"}, {"measurement": "IC50", "setting": "MOLM-13 cells", "value": "> 10000", "unit": "nM"}]}, {"smiles": "C[C@@H]1C(=O)N(C)c2ccc(Nc3cccc(S(=O)(=O)NCC4CCN(C)CC4)c3)nc2N1C1CCOCC1", "note": "[Example 44, 3-{[(3R)-1,3-dimethyl-2-oxo-4-(tetrahydro-2H-pyran-4-yl)-1,2,3,4-tetrahydropyrido[2,3-b]pyrazin-6-yl]amino}-N-[(1-methylpiperidin-4-yl)methyl]benzene-sulphonamide]", "values": [{"measurement": "IC50", "setting": "[1]", "value": 50, "unit": "nM"}, {"measurement": "IC50", "setting": "MOLM-13 cells", "value": 253, "unit": "nM"}]}]}
